# Patent publication US20140357713A1, “ANTIMICROBIAL COMPOUNDS AND METHODS OF USE” (NexMed Holdings, Inc., priority 2012, published 2014)
# Like-named read-outs stand apart in the source and are kept apart here.
# Assays:
# [1] = Solubility (Sol., Table 1); assay type: physicochemical
# pH (Table 1) = assay type: physicochemical
# [2] = system: Escherichia coli (ATCC 25922); assay: Minimum inhibitory concentration (MIC) assay, Example 33; assay type: cell-based; conditions: Escherichia coli
# Method in brief: (§1)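 Colonies re-streaked twice on agar (20 to 24 hrs, 35±2° C) supplied inoculum adjusted to 0.5 McFarland, diluted 1:100 into medium, then added 1:2 to CAMHB wells holding 2-fold compound dilutions. After incubation at 35° C, MIC was recorded per CLSI.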
# [3] = system: Pseudomonas aeruginosa (ATCC 27853); assay: as above; assay type: cell-based; conditions: Pseudomonas aeruginosa
# Method in brief: as §1
# [4] = system: Staphulococcus aureus (ATCC 29213); assay: as above; assay type: cell-based, Staphylococcus aureus; conditions: Staphylococcus aureus
# Method in brief: as §1
# [5] = system: Candida albicans (ATCC 90029); assay: as above; assay type: cell-based; conditions: Candida albicans
# Method in brief: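 Broth microdilution per CLSI guidelines in RPMI 1640; inoculum set to OD530 0.08–0.13, diluted 1:50 then 1:20 to 2× strength and mixed 1:2 with 2-fold serial compound dilutions. Incubated at 35° C; MIC read per CLSI.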
# [6] = system: Aspergillus niger (CMCC 98003); assay: as above; assay type: cell-based; conditions: Aspergillus niger
# Method in brief: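 Broth microdilution MIC per CLSI guidelines in RPMI 1640 with serial 2-fold compound dilutions. Spore suspension from sporulating colonies adjusted to OD530 0.09-0.13, diluted 1:50 as 2× inoculum and added 1:2 to drug wells; plates incubated at 35 °C and MIC read per CLSI.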
# [7] = system: Escherichia coli (ATCC 25922); assay: Time kill study, Example 33 (0 to 5 min); assay type: cell-based; conditions: 1×MIC
# Method in brief: (§2)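 Performed per CLSI guidelines. Strain suspensions prepared as for MIC testing were mixed with compound solution in equal volume; samples taken at 0 min, 30 sec, 1 min and 5 mins were diluted in test medium, streaked on agar, and colonies counted after 24 to 48 hrs to give viable counts in Log10 CFU/mL.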
# [8] = system: Pseudomonas aeruginosa (ATCC 27853); assay: Time kill study, Example 33 (0 to 5 min); assay type: cell-based; conditions: 1×MIC
# Method in brief: as §2
# [9] = system: Staphylococcus aureus (ATCC 29213); assay: Time kill study, Example 33 (0 to 5 min); assay type: cell-based; conditions: 1×MIC
# Method in brief: as §2
compound,measurement,setting,value
"CCCCCCCCCCCC(C)(C)OC(=O)C(C)N(C)C.Cl (stereo not drawn) [Nex-65, 2-Methyltridecan-2-yl 2-(dimethylamino)propanoate hydrochloride]",Sol.,[1],51%
same,pH,pH (Table 1),1.66
same,MIC,"[2]; ATCC25922, Table 19 summary of Example 33 and Example 35, read-out: MIC",3130 µg/mL
same,MIC,"[2]; ATCC25922, n = 1, read-out: MIC E. coli",3130 µg/mL
same,MIC,"[2]; ATCC25922, n = 2, read-out: MIC E. coli",3130 µg/mL
same,MIC,"[3]; ATCC27853, Table 19 summary, read-out: MIC",6250 µg/mL
same,MIC,"[3]; ATCC27853, n = 1, read-out: MIC P. aeruginosa",6250 µg/mL
same,MIC,"[3]; ATCC27853, n = 2, read-out: MIC P. aeruginosa",6250 µg/mL
same,MIC,"[4]; ATCC29213, Table 19 summary, read-out: MIC",3130 µg/mL
same,MIC,"[4]; ATCC29213, n = 1, read-out: MIC S. aureus",3130 µg/mL
same,MIC,"[4]; ATCC29213, n = 2, read-out: MIC S. aureus",3130 µg/mL
same,MIC,"[5]; ATCC90029, Table 19 summary, read-out: MIC",> 12500 µg/mL
same,MIC,"[5]; ATCC90029, n = 1, read-out: MIC Candida albicans",> 12500 µg/mL
same,MIC,"[5]; ATCC90029, n = 2, read-out: MIC Candida albicans",> 12500 µg/mL
same,MIC,"[6]; CMCC98003, Table 19 summary, read-out: MIC",> 12500 µg/mL
same,MIC,"[6]; CMCC98003, n = 1, read-out: MIC Aspergillus niger",> 12500 µg/mL
same,MIC,"[6]; CMCC98003, n = 2, read-out: MIC Aspergillus niger",> 12500 µg/mL
same,"Viable counts, Escherichia coli time kill study",[7]; 0.5 min,5.72 Log10 CFU/mL
same,"Viable counts, Escherichia coli time kill study",[7]; 1 min,5.97 Log10 CFU/mL
same,"Viable counts, Escherichia coli time kill study",[7]; 5 min,4.22 Log10 CFU/mL
same,"Viable counts, Escherichia coli time kill study",[7]; time 0,5.68 Log10 CFU/mL
same,"Viable counts, Pseudomonas aeruginosa time kill study",[8]; 0.5 min,5.36 Log10 CFU/mL
same,"Viable counts, Pseudomonas aeruginosa time kill study",[8]; 1 min,5.52 Log10 CFU/mL
same,"Viable counts, Pseudomonas aeruginosa time kill study",[8]; 5 min,<3.52 Log10 CFU/mL
same,"Viable counts, Pseudomonas aeruginosa time kill study",[8]; time 0,5.52 Log10 CFU/mL
same,"Viable counts, Staphylococcus aureus time kill study",[9]; 0.5 min,6.39 Log10 CFU/mL
same,"Viable counts, Staphylococcus aureus time kill study",[9]; 1 min,6.35 Log10 CFU/mL
same,"Viable counts, Staphylococcus aureus time kill study",[9]; 5 min,6.17 Log10 CFU/mL
same,"Viable counts, Staphylococcus aureus time kill study",[9]; time 0,6.34 Log10 CFU/mL
same,melting point,,100 to 106 °C
